assay: Thermal gravimetric analysis of the ILs and DSILs; type: physicochemical; details: TGA under nitrogen, 10° C./min
Experimental: Thermal behavior was determined using a Mettler Toledo Stare TGA/DSC1 unit (Mettler Toledo, Leicester, UK) under nitrogen. Samples between 3 and 10 mg were placed in alumina crucibles (70 μL) and heated from room temperature to 75° C. at a heating rate of 10° C./min. An isotherm at 75° C. was maintained for 30 min to eliminate all volatiles, if any. After the isothermal step, the temperature was ramped to 800° C. at a heating rate of 10° C./min. The data was analyzed using STARe Evaluation software.

| T5% (decomposition temperature of 5% sample) | T50% (decomposition temperature of 50% sample) | SMILES |
| --- | --- | --- |
| 173.1 °C | 211.4 °C | CC(=O)[O-].C[N+](C)(C)CCO [[Ch][Ace], cholinium acetate] |
| 155.9 °C | 218.1 °C | C[N+](C)(C)CCO.NCCCC[C@H](N)C(=O)[O-] [[Ch][Lys], cholinium lysinate] |
| 180.7 °C | 209.5 °C | CCCCCCCC(=O)[O-].C[N+](C)(C)CCO [[Ch][Oct], cholinium octanoate] |
| 177.7 °C | 225.3 °C | CCCCCCCCCCCCCCCC(=O)[O-].C[N+](C)(C)CCO [[Ch][Pal], cholinium palmitate] |

— patent publication US20220195666A1, “USE OF A PLURALITY OF SALT IONIC LIQUIDS IN THE PRETREATMENT OF BIOMASS” (priority 2020, published 2022)
